Values joined by “and” are separate entries in the source; they are usually repeats but may differ in a detail not shown here. Equal values may be shown once.
Legend:
[1] = test system: macro- and micro-cancers; details: input of the model; cited from earlier work
[2] = test system: cirrhotic liver; experiment: Tolerability of the procedures and liver damage in cirrhotic rats after CA4P; type: in vivo, rat
Experimental: (§1) Tumor growth was monitored weekly by MRI from the 9th week after DENA administration until the largest tumor lesion attained more than 1 mm in diameter. All recruited tumor-carrying rats received single intravenous injection of CA4P at 10 mg/kg. T2WI, T1WI, DWI and CE-T1WI were performed 4 h before and 12 h after CA4P therapy. Rats were euthanized after the last time point of MRI for postmortem microangiography and histopathology.
(§2) After microangiography, the tumor sections were paraffin imbedded, sliced into 5 μm thickness and stained with hematoxylin and eosin (H&E) for microscopic analysis using an Axiovert 200M microscope equipped with an AxioCam MR monochrome digital camera (Carl Zeiss Inc, Gottingen, Germany) and by AxioVision 4.8 software.

[3] = test system: subcutaneous rhabdomyosarcomas; details: large tumors (≥14 cm^3) versus small tumors (<1 cm^3); cited from earlier work
[4] = test system: implanted tumor models; details: in vivo; cited from earlier work
[5] = test system: micro-HCCs and cirrhotic liver; experiment: In vivo MRI (DWI-derived ADCperf/ADCdiff, T2WI, CE-T1WI) of micro-HCCs and surrounding cirrhotic liver after CA4P; set-up: species or system rat
Experimental: Images were acquired on a clinical 3.0T MRI scanner (MAGNETOM Prisma; Siemens, Erlangen, Germany) and a human wrist coil (Hand/Wrist 16, A 1.5 T Tim coil, Siemens). Twenty axial images were acquired, with a slice thickness of 2.0 mm and a gap of 0.4 mm. T2-weighted (repetition time, 4000 ms; echo time, 70 ms; flip angle, 150°; field of view, 75×56 mm^2; matrix, 256×192) and T1-weighted (repetition time, 626 ms; echo time, 15 ms; flip angle, 160°; field of view, 75×56 mm^2; matrix, 256×192) turbo spin echo (TSE) images (T2WI, T1WI) were performed weekly to monitor tumor growth, while T2WI, T1WI, diffusion-weighted imaging (DWI) and consecutive contrast-enhanced (CE-) T1WIs were acquired to evaluate CA4P treatment. For DWI, a 2-dimensional SE echo-planar imaging (EPI) sequence (repetition time, 3500 ms; echo time, 62 ms; flip angle, 90°; field of view, 136×74 mm2; matrix, 96×52) with 8 b values (0, 50, 100, 150, 400, 600, 800 and 1000 seconds/mm^2) was acquired. For CE-MRI, a bolus of 0.2 mmol/kg Gd-DOTA was injected before a series of CE-T1WIs were acquired.?
as §1
On DWI, tumor area was manually contoured with an operator-defined region of interest (ROI) on all tumor-containing images. ADC map was calculated from DWI to quantify therapeutic responses by the following mono-exponential formula: Si=S0×exp (−bi×ADC), in which Si is the signal intensity (SI) measured on the ith b value image, bi is the corresponding b value, and S0 is a variable estimating the intrinsic SI (for b=0 seconds/mm^2).
For the calculation of different ADC values, tumors were freehand delineated only on the central slices with the largest cross-sectional areas on the original DWIs at the b value of 1000 s/mm^2, in order to avoid partial volume effects. The delineation of each tumor lesion was copied to all images with different b values automatically. The average SI per tumor and per b value was then determined. The difference between ADClow (b=0, 50 and 100 s/mm^2) and ADChigh (b=600, 800 and 1000 s/mm^2) was defined as ADCperf to reflect the tissue microcapillary perfusion, while ADChigh was defined as ADCdiff [Chen et al. (2007) Methods. 43, 12-20].

[6] = test system: rhabdomyosarcomas (R1); experiment: CA4P in rats with liver implantation of micro rhabdomyosarcomas (R1); type: in vivo, rat
Text: To verify whether the above unexpected findings can be supported in other types of solid tumors, we intentionally studied CA4P in a group of rats with liver implantation of rhabdomyosarcomas (R1) ranging from 1 to 5 mm in diameter as monitored by noninvasive longitudinal MRI and verified by postmortem techniques. R1 has been extensively studied on VDA research before but in much larger tumor size.

[7] = test system: primary hepatocellular carcinomas (HCCs); experiment: CA4P-induced tumoral necrosis in DENA-induced primary HCCs on cirrhotic liver (histopathology, microangiography); type: in vivo, rat
Experimental: as §1
After the last MRI scanning, rats were anesthetized by an intraperitoneal injection of pentobarbital at 50 mg/kg. Then laparotomy was performed with blood collected via postcava and abdominal aorta cannulated, through which barium suspension was injected before the entire tumor-bearing liver was excised. With a digital mammography unit (Em-brace; Agfa-Gevaert, Mortsel, Belgium), postmortem hepatic arteriography was made at 26 kV, 32 mAs to document changes in tumor vascularity. The livers were then fixed and sliced into 3-mm sections in the axial plane corresponding to the MR images, and these sections were radiographed at 26 kV, 18 mAs for qualitative analysis.
as §2
Due to the high analogy to the histopathological progression observed in human liver cancer, rat primary HCCs were diagnosed according to the classical histomorphologic features: malignant hepatocytic tumors, often well vascularized, with wide trabeculae (>3 cell layers), noticeable acinar pattern, small cell changes, cytologic atypia, prominent nucleoli, mitotic activity, vascular invasion, absence of Kupffer cells and the loss of the reticulin network. The differentiation of rat HCCs was further classified into Grade I-IV using a modified 4-scale Edmondson and Steiner system [Schlageter et al. cited above].
Digital images of tumor slices at a magnification of 12.5 were used to estimate the percentage of tumor necrosis by ImageJ software [Buijs et al. (2011) J Vasc Intery Radiol 22, 1175-1180]. Briefly, regions of interest were delineated around the entire tumor and the necrotic tumor, respectively, to get ‘necrotic ratio on each section’. For each tumor section, the axial slide representing this tumor block was selected as ‘section area’. Tumor necrosis on each H&E stained slice was estimated independently by 2 pathologists, and calculated with the equation: Intratumoral necrosis ratio (%)=Σ[Necrotic ratio on each section (%)×section area (mm^2)]×section thickness (mm)/[4/3π r^3] (mm^3).
Statistical analyses were carried out by GraphPad Prism (version 7.02, GraphPad Software Inc, La Jolla, Calif., USA). The Pearson's correlation coefficient was calculated between percentile tumoral necrosis calculated by histopathology and tumor diameter measured from T2WI. Numerical data were presented as mean±standard errors of the mean (SEM). Comparison of percentile tumoral necrosis was performed by unpaired […] t-test; results of ADCs between tumor and liver background were compared by two-way ANOVA. A significant difference was concluded for P<0.05.

[8] = test system: rodent sarcoma, squamous cell carcinoma, fibrosarcoma, human renal cell carcinoma, Kaposi's sarcoma and breast carcinoma; details: intraperitoneal injection; cited from earlier work
[9] = 12 h after CA4P 10 mg/kg iv versus baseline
[10] = micro-HCC, CA4P 10 mg/kg iv, 12 h

COc1ccc(/C=C\c2cc(OC)c(OC)c(OC)c2)cc1OP(=O)(O)O [CA4P, combretastatin A-4 phosphate]
tumour necrosis (α) known to be induced [1]: 50-99%
survival of rats ([2]; DENA gavage, anesthesia, MRI with contrast and intravenous CA4P treatment, 19 rats): All rats survived
necrosis in cirrhotic liver parenchyma ([2]; microscopy, 12 h after CA4P 10 mg/kg iv): necrotic foci scattered in the cirrhotic liver
CA4P efficacy in large tumors relative to small tumors [3]: 16.6 fold
onset of tumor vascular disruption [4]: less than 1 hour
time to extensive intratumoral necrosis [4]: ≤ 12 h
ADCdiff in micro-HCC tumor ([5]; 12 h after CA4P 10 mg/kg iv): slightly rose
ADCdiff in surrounding cirrhotic liver ([5]; 12 h after CA4P 10 mg/kg iv): nearly unchanged
ADCperf (blood perfusion) in micro-HCC tumor [5, 9]: drop of tumor perfusion
ADCperf (blood perfusion) in surrounding cirrhotic liver [5, 9]: sharply decreased blood perfusion
duration of continuous liver ischemia ([5]; cirrhotic liver, CA4P 10 mg/kg iv): at least 12 h
tumoral necrosis on MRI, representative microcancer Tumor 1 ([5]; twelve hours after CA4P treatment, T2WI, ADC, CE-T1WI): massive tumoral necrosis
histology of representative micro R1 tumor ([6]; 12 h after CA4P treatment, HE stained microscopy): massive and partial hemorrhagic tumor necrosis
necrosis in liver-implanted R1 lesions ([6]; R1 of 1 to 5 mm in diameter, 10 out of 11 lesions): over 90%
tumoral necrosis, hypovascular Grade I-II well-differentiated micro-HCCs (Tumor 1-5) ([7]; histopathology, CA4P 10 mg/kg iv, 12 h): 82.77-96.45%
tumoral necrosis, Grade IV undifferentiated Tumor 7 (vascular lakes) [7, 10]: minimal necrosis
tumoral necrosis, hypervascular Grade III poorly differentiated Tumor 6 [7, 10]: 23.15%
rate of tumoral necrosis in hepatic microcancers higher than in larger HCCs ([7]; micro-HCCs ≤5 mm versus HCCs >5 mm, CA4P 10 mg/kg iv, 12 h): 36.9% and 36.93%
correlation of CA4P-induced tumoral necrosis with tumor diameter, micro-HCCs ([7]; tumors with diameters of ≤5 mm): not linearly correlated

COc1cc2c(c(OC)c1OC)-c1ccc(OP(=O)(O)O)cc1[C@@H](NC(C)=O)CC2 [ZD6126, N-acetylcochinol-O-phosphate]
necrosis in tumors larger than 1 g [8]: ~90%
necrosis in tumors of less than 0.3 g [8]: ~25%

Reference: patent US11918548B2, “Treatment of avascular or hypovascular micro-tumors” (Katholieke Universiteit Leuven, priority 2017, dated 2024)
